Measurements published in patent publication US10968214B2, “KRas G12C inhibitors” (Eli Lilly and Company, priority 2018, dated 2021).
Read-outs that look alike come from different tables or passages of the source.

How the values were obtained:
[1] = test system: pERK in H2122 xenograft tumors; assay: In vivo target inhibition/PD, H2122 xenograft, pERK; conditions: Mus musculus, NCI-H2122; for inhibition at 10 mg/kg: 10 mg/kg single dose
Method: To evaluate in vivo target inhibition and anti-tumor efficacy of a compound, Human lung cancer cells, H358 or H2122 are implanted into nude mice xenograft tumor models. Either H358 or H2122 cells (10×10^6 in a 1:1 Matrigel® mix, 0.2 mL total volume) are implanted by subcutaneous injection in hind leg of nude female mice (Harlan Laboratories). A total of 5 mice each group are used for efficacy study, and a total of 3-4 mice each group are used for target engagement and PD study. Treatment is initiated with oral administration (gavage) of a test compound or vehicle (20% Captisol®, 25 mM phosphate, pH 2.0 in 0.2 mL volume when the tumor size reaches approximately […]. Tumor growth and body weight are monitored over time to evaluate efficacy and signs of toxicity. Bidimensional measurements of tumors are performed twice a week and tumor volumes are calculated based on mid-axis length and mid-axis width. Tumor volume data are transformed to a log scale to equalize variance across time and treatment groups. The log volume data are analyzed with a two-way repeated measures analysis of variance by time and treatment using the mixed procedures in SAS software (version 8.2). The correlation model for the repeated measures is spatial power. Treated groups are compared to the control group at each time point. The mixed procedure is also used separately for each treatment group to calculate adjusted means and standard errors at each time point. Both analyses account for the autocorrelation within each animal. The adjusted means and standard errors are plotted for each treatment group versus time.
For in vivo target inhibition and PD analysis, tumors are ground by mortar and pestle on dry ice and tumor fragments are added to 800 μL of lysis buffer containing 1% Triton X100, 25 mM Tris pH 7.5, 150 mM NaCl, 1 mM EDTA, and 1 mM EGTA with Halt protease and phosphatase inhibitor cocktail (Thermo Scientific, cat. no. 1861281) in lysing matrix D tubes (MP Biomedical®, cat. no. 6913-500) with one additional large bead (MP Biomedical® ¼″ ceramic sphere bead cat. no. 6540-412) per tube. Tumor fragments are homogenized in a Thermo Bio101® fast prep (FP120) at setting 4 for […] while cold for a total of 2 times. Lysates are spun at 14,000 rpm for 10 min at 4° C. to clarify. Protein estimation is done on the lysate supernatant using a BioRad Dc® protein assay and lysates are diluted in complete lysis/binding buffer from the Ras GTPase Chemi ELISA Kit® (Active Motif, cat. no. 52097). The active KRas ELISA was performed as follows: Glutathione-coated ELISA wells were incubated with diluted RAF1-GST in complete lysis/binding buffer for 1 hr at 4° C. with gentle agitation. Wells are washed 3 times with wash buffer and 100 μg of lysates are added to each well and incubated at RT for 1 hr with mild agitation. The wells are washed an additional 3 times, then primary antibody, diluted in antibody binding buffer, is added to each well. The plates are incubated for 1 hr. The wells are washed 3 more times before adding HRP-conjugated secondary antibody, diluted in antibody binding buffer, to each well. The plates are incubated at RT for 1 hr. ELISA wells are washed 4 times, chemiluminescent reagents is added and then luminescence is read. For pERK Meso Scale Discovery ELISA, 25 μg of protein containing 0.1% SDS is used; for pMEK Meso Scale Discovery ELISA, 50 μg of protein without SDS is used. Meso Scale Discovery Whole Cell Lysate Kits for pERK and pMEK are provided by Meso Scale Discovery.
After a single dose, the tumor samples are harvested at different time points. The tumor lysates are prepared as described above. The inhibition of pERK, pMEK, and active KRas is measured as described above.

LXFA-983L [2] = assay: Combination 4 day growth assay (Cell TiterGlo), LXFA-983L; type: cell-based; conditions: LXFA 983L, 96 h, single treatment, read-out: Absolute IC50
Method: Cell lines for this study are obtained from ATCC and grown under ATCC recommended conditions, except for LXFA-983L, which is obtained from Oncotest/Charles Rivers Laboratories, Wilmington, Mass. and D122-96, which is obtained from L. Eisenbach (Weizman Institute of Science, Rehovot, Israel)—both grown under recommended conditions. […] The proliferation assay is performed as a 4 day growth assay using Cell TiterGlo® as the readout. Briefly, cells are plated in 96-well cell culture plates and allowed to adhere overnight at 37° C. The following day, cells are treated with compounds, either single treatments or combination treatments. First, the testing compounds are serially diluted in DMSO, followed by dilution into media as a 5× concentration with 1% DMSO, and finally added to cells in media to dilute to 1×. The cells are incubated at 37° C. for 4 more days. At the end of the incubation period, Cell TiterGlo® reagent is mixed and added to the wells. After 10 minutes, the luminescence is read by a Perkin Elmer Envision instrument. Absolute IC50 values generated by a 4-parameter logistics model for the single and combination treatments are generated, followed by combination indexes for each combination treatment and cell line. The combination IC50 values are adjusted based on the total concentration of each compound when added together. […] The combination index (CI) measures the degree to which the potency of a combination therapy differs from the expected-if-additive potency and is based on the Loewe definition of additivity.
[formula] Where • CAy and CBy are the concentrations of therapies A and B that produce an effect, y, when given in combination • ICAy and ICBy are the concentrations of A and B that produce an effect, y, when given individually The biological interpretation of the combination index is as follows: synergistic if the combination index <0.5, additive if the combination index is between 0.5 and 2, and antagonistic if the combination index is >2.

LXFA-983L [3] = assay: CellTiterGlo Cell Proliferation Assay, LXFA-983L; type: cell-based; conditions: KRas G12C, Lung, 96 hr
Method: A panel of tumor cell lines harboring KRas G12C or other KRas mutations are collected (Table 6). All cell lines are from ATCC or other sources indicated.
Typically cells are cultured in RPMI1640 or Dulbecco's modified Eagle's medium (DMEM, GIBCO) supplemented with 10% FBS (GIBCO, Invitrogen). For 2D culture cells (4×10^3/well) maintained in growth medium described above, are plated onto 96 well tissue culture plates Corning® Cat. 3603) a day before the treatment. For 3D culture 8000 cells/well are seeded onto 96 well ultra-low attachment tissue culture plates (Corning, #3474). The cells are treated compound for 96 hr, and then are analyzed for viability using the CellTiterGlo® Luminescent Cell Viability Assay® (Promega #G7572 for 2D and Promega #G9683 for 3D cultures) according to manufacturer's instructions and an EnVision™ plate reader. Nonlinear regression and sigmoidal dose-response curves are used to calculate the half maximal inhibitory concentration (IC50) with GraphPad Prism 4® software.

## C=CC(=O)N1CCN(c2ncnc3c(F)c(-c4ccc(F)c5sc(N)nc45)c(Cl)cc23)CC1 [Example 1, 1-{4-[7-(2-Amino-7-fluoro-1,3-benzothiazol-4-yl)-6-chloro-8-fluoroquinazolin-4-yl]piperazin-1-yl}prop-2-en-1-one]
[1]; H2122 xenograft, 2 hr, read-out: % Inhibition pERK
  inhibition at 10 mg/kg: 46.8%
[1]; H2122 xenograft, 4 hr, read-out: % Inhibition pERK
  inhibition at 10 mg/kg: 47%
[1]; H2122 xenograft, 8 hr, read-out: % Inhibition pERK
  inhibition at 10 mg/kg: 34.5%
[1]; H2122 xenograft, 12 hr, read-out: % Inhibition pERK
  inhibition at 10 mg/kg: 7.2%
[1]; H2122 xenograft, 24 hr, read-out: % Inhibition pERK
  inhibition at 10 mg/kg: -2.8%
[1]; H2122 xenograft, from 2-12 hr, read-out: pERK inhibition
  inhibition at 10 mg/kg: 7 to 47%
[1]; H2122 xenograft, 30 mg/kg single dose, 2 hr, read-out: % Inhibition pERK
  inhibition at 30 mg/kg: 75.6%
[1]; H2122 xenograft, 30 mg/kg single dose, 4 hr, read-out: % Inhibition pERK
  inhibition at 30 mg/kg: 75.3%
[1]; H2122 xenograft, 30 mg/kg single dose, 8 hr, read-out: % Inhibition pERK
  inhibition at 30 mg/kg: 67.4%
[1]; H2122 xenograft, 30 mg/kg single dose, 12 hr, read-out: % Inhibition pERK
  inhibition at 30 mg/kg: 48.8%
[1]; H2122 xenograft, 30 mg/kg single dose, 24 hr, read-out: % Inhibition pERK
  inhibition at 30 mg/kg: 20.4%
[1]; H2122 xenograft, 100 mg/kg single dose, 4 hr
  inhibition at 100 mg/kg: 79.1%
[1]; read-out: pERK inhibition
  inhibition at 30 mg/kg: 49 to 76%
LXFA-983L [2]
  IC50: 2590 nM
LXFA-983L [3]; read-out: IC50 (μM) in 2 D cell proliferation
  IC50: 1.34 µM
LXFA-983L [3]; read-out: IC50 (μM) in 3 D spheroid cell proliferation
  IC50: 0.05 µM
